Data: patent US20100152434A1, “Protein Kinase-binding Nucleosides and Associated Methods” (priority 2007, published 2010)
Where two headings read alike, the source gives them in different places.

How the values were obtained:
SK-MEL-5 = test: cells; conditions: Homo sapiens, SK-MEL-5, 48 h
OVCAR-8 = test: cells; conditions: Homo sapiens, OVCAR-8, 48 h
MCF7 [1] = test: cells; conditions: Homo sapiens, MCF7, 48 h
SW-620 = test: cells; conditions: Homo sapiens, SW-620, 48 h
MCF7 [2] = test system: MCF7
RXF 393 = conditions: RXF 393
SK-MEL-2 = test: cells; conditions: Homo sapiens, SK-MEL-2, 48 h
NCI-H226 [3] = test system: NCI-H226
T-47D = test: cells; conditions: Homo sapiens, T47D, 48 h
NCI-H23 [4] = test system: NCI-H23
NCI-H226 [5] = test: cells; conditions: Homo sapiens, NCI-H226, 48 h
788-0 = test: cells; conditions: Homo sapiens, 48 h
TK-10 [6] = test system: TK-10
HOP-62 = conditions: HOP-62
ACHN [7] = test system: ACHN
ACHN [8] = test: cells; conditions: Homo sapiens, 48 h
SF-539 = test: cells; conditions: Homo sapiens, SF-539, 48 h
UO-31 = test: cells; conditions: Homo sapiens, UO-31, 48 h
TK-10 [9] = test: cells; conditions: Homo sapiens, TK-10, 48 h
NCI-H23 [10] = test: cells; conditions: Homo sapiens, NCI-H23, 48 h
KM12 = test: cells; conditions: Homo sapiens, KM12, 48 h
[11] = Log10 Concentration −4.0, Molar
[12] = Log10 Concentration −5.0, Molar
[13] = Log10 Concentration −6.0, Molar
[14] = Log10 Concentration −7.0, Molar
[15] = Log10 Concentration −8.0, Molar

`CCOC(=O)C[C@@H]1C(O[Si](C)(C)C(C)(C)C)[C@H](n2cnc3c(NC(=O)Nc4ccccc4)ncnc32)O[C@@H]1CNC(=O)NC` (stereo partly drawn) [Compound 10] was tested, and the GI50 (SK-MEL-5) was 4.34 µM, the CC50 (SK-MEL-5; read-out: LC50) was > 100 µM and the TGI (SR; 48 h) was 7.07E−6 Molar. For the same molecule, the “Percent Growth” value (SR; [11]) was −34%, the “Percent Growth” value (SR; [12]) was −15% and the “Percent Growth” value (SR; [13]) was 85%. The “Percent Growth” value (SR; [14]) was 70%, the “Percent Growth” value (SR; [15]) was 82% and the GI50 (OVCAR-8) was 4.92 µM. The CC50 (OVCAR-8; read-out: LC50) was > 100 µM, the GI50 (MCF7 [1]) was 3.42 µM and the CC50 (MCF7 [1]; read-out: LC50) was > 100 µM. For the same molecule, the TGI (SF-295; 48 h) was >1.00E−4 Molar, the “Percent Growth” value (SF-295; [11]) was 24% and the “Percent Growth” value (SF-295; [12]) was 38%. The “Percent Growth” value (SF-295; [13]) was 88%, the “Percent Growth” value (SF-295; [14]) was 91% and the “Percent Growth” value (SF-295; [15]) was 91%. For the same molecule, the GI50 (SW-620) was 4.8 µM, the CC50 (SW-620; read-out: LC50) was > 100 µM and the TGI (MCF7 [2]; 48 h) was 4.51E−5 Molar. The “Percent Growth” value (MCF7 [2]; [11]) was −8%, the “Percent Growth” value (MCF7 [2]; [12]) was 16% and the “Percent Growth” value (MCF7 [2]; [13]) was 89%. For the same molecule, the “Percent Growth” value (MCF7 [2]; [14]) was 91%, the “Percent Growth” value (MCF7 [2]; [15]) was 96% and the TGI (RXF 393; 48 h) was 4.63E−6 Molar. The “Percent Growth” value (RXF 393; [11]) was −59%, the “Percent Growth” value (RXF 393; [12]) was −46% and the “Percent Growth” value (RXF 393; [13]) was 92%. The “Percent Growth” value (RXF 393; [14]) was 97%, the “Percent Growth” value (RXF 393; [15]) was 99% and the TGI (OVCAR-4; 48 h) was >1.00E−4 Molar. The “Percent Growth” value (OVCAR-4; [11]) was 16%, the “Percent Growth” value (OVCAR-4; [12]) was 53% and the “Percent Growth” value (OVCAR-4; [13]) was 95%. The “Percent Growth” value (OVCAR-4; [14]) was 103%, the “Percent Growth” value (OVCAR-4; [15]) was 98% and the GI50 (SK-MEL-2) was 5.42 µM. The CC50 (SK-MEL-2; read-out: LC50) was > 100 µM, the TGI (NCI-H522; 48 h) was 8.57E−5 Molar and the “Percent Growth” value (NCI-H522; [11]) was −2%. The “Percent Growth” value (NCI-H522; [12]) was 32%, the “Percent Growth” value (NCI-H522; [13]) was 83% and the “Percent Growth” value (NCI-H522; [14]) was 85%. The “Percent Growth” value (NCI-H522; [15]) was 89%, the TGI (NCI-H226 [3]; 48 h) was >1.00E−4 Molar and the “Percent Growth” value (NCI-H226 [3]; [11]) was 55%. For the same molecule, the “Percent Growth” value (NCI-H226 [3]; [12]) was 71%, the “Percent Growth” value (NCI-H226 [3]; [13]) was 102% and the “Percent Growth” value (NCI-H226 [3]; [14]) was 105%. For the same molecule, the “Percent Growth” value (NCI-H226 [3]; [15]) was 101%, the GI50 (T-47D) was 2.55 µM and the CC50 (T-47D; read-out: LC50) was > 100 µM. For the same molecule, the TGI (NCI-H23 [4]; 48 h) was >1.00E−4 Molar, the “Percent Growth” value (NCI-H23 [4]; [11]) was 36% and the “Percent Growth” value (NCI-H23 [4]; [12]) was 65%. For the same molecule, the “Percent Growth” value (NCI-H23 [4]; [13]) was 100%, the “Percent Growth” value (NCI-H23 [4]; [14]) was 100% and the “Percent Growth” value (NCI-H23 [4]; [15]) was 101%. The TGI (DU-145; 48 h) was 1.94E−5 Molar, the “Percent Growth” value (DU-145; [11]) was −59% and the “Percent Growth” value (DU-145; [12]) was 24%. The “Percent Growth” value (DU-145; [13]) was 110%, the “Percent Growth” value (DU-145; [14]) was 123% and the “Percent Growth” value (DU-145; [15]) was 110%. For the same molecule, the GI50 (NCI-H226 [5]) was > 100 µM, the CC50 (NCI-H226 [5]; read-out: LC50) was > 100 µM and the GI50 (788-0) was 2 µM. The TGI (TK-10 [6]; 48 h) was 4.05E−5 Molar, the “Percent Growth” value (TK-10 [6]; [11]) was −38% and the “Percent Growth” value (TK-10 [6]; [12]) was 59%. The “Percent Growth” value (TK-10 [6]; [13]) was 105%, the “Percent Growth” value (TK-10 [6]; [14]) was 103% and the “Percent Growth” value (TK-10 [6]; [15]) was 98%. The TGI (HOP-62; 48 h) was 2.64E−5 Molar, the “Percent Growth” value (HOP-62; [11]) was −65% and the “Percent Growth” value (HOP-62; [12]) was 48%. The “Percent Growth” value (HOP-62; [13]) was 97%, the “Percent Growth” value (HOP-62; [14]) was 92% and the “Percent Growth” value (HOP-62; [15]) was 99%. For the same molecule, the TGI (ACHN [7]; 48 h) was >1.00E−4 Molar, the “Percent Growth” value (ACHN [7]; [11]) was 35% and the “Percent Growth” value (ACHN [7]; [12]) was 47%. For the same molecule, the “Percent Growth” value (ACHN [7]; [13]) was 96%, the “Percent Growth” value (ACHN [7]; [14]) was 97% and the “Percent Growth” value (ACHN [7]; [15]) was 107%. The TGI (SK-OV-3; 48 h) was >1.00E−4 Molar, the “Percent Growth” value (SK-OV-3; [11]) was 16% and the “Percent Growth” value (SK-OV-3; [12]) was 66%. For the same molecule, the “Percent Growth” value (SK-OV-3; [13]) was 90%, the “Percent Growth” value (SK-OV-3; [14]) was 96% and the “Percent Growth” value (SK-OV-3; [15]) was 96%. The GI50 (ACHN [8]) was 8.55 µM, the CC50 (ACHN [8]; read-out: LC50) was > 100 µM and the GI50 (SF-539) was 5.19 µM. For the same molecule, the CC50 (SF-539; read-out: LC50) was > 100 µM, the GI50 (UO-31) was 12.1 µM and the CC50 (UO-31; read-out: LC50) was 71.7 µM. For the same molecule, the GI50 (TK-10 [9]) was 12.4 µM, the CC50 (TK-10 [9]; read-out: LC50) was > 100 µM and the GI50 (NCI-H23 [10]) was 33.3 µM. For the same molecule, the CC50 (NCI-H23 [10]; read-out: LC50) was > 100 µM, the GI50 (KM12) was 3.95 µM and the CC50 (KM12; read-out: LC50) was > 100 µM.
